Measured values taken from patent publication US11072628B2, “Nucleoside analogues for the treatment of parasitic infections” (UNIVERSITEIT GENT, priority 2017, dated 2021).
Where two headings read alike, the source gives them in different places.

Experiments:
T. brucei Squib 427 = assay: In vitro drug susceptibility, T. brucei Squib 427 (resazurin); format: cell-based, Trypanosoma brucei brucei; settings: Trypanosoma brucei
Method: (§1) All trypanosome strains were cultured in the standard HMI-9 medium supplemented with 10% fetal bovine serum (FBS) at 37° C. in a 5% CO2 atmosphere.

[1] = tested on: T. cruzi Tulahuen CL2 β galactosidase strain; assay: T. cruzi Tulahuen CL2 β galactosidase strain on MRC-5SV2 cells (CPRG); format: cell-based, Trypanosoma cruzi; settings: Trypanosoma cruzi, TULAHUEN, MRC-5 SV2
Method: All cultures and assays were conducted at 37° C./5% CO2. […] The results were expressed as % reduction in parasite burdens compared to control wells from which an EC50 was calculated.

[2] = tested on: T. b. rhodesiense STIB-900; assay: In vitro drug susceptibility, T. b. rhodesiense STIB-900 (resazurin); format: cell-based, Trypanosoma brucei rhodesiense; settings: Trypanosoma brucei, RHODESIENSE
Method: as §1

[3] = Cytotoxicity against MRC-5 fibroblasts; settings: human, MRC-5 fibroblasts, cytotoxicity
Method: Cytotoxicity was assayed against MRC-5 fibroblasts. Results are depicted in Tables 4 and 5.

[4] = read-out: T. brucei brucei EC50, Table 1, average of 2-4 independent determinations
[5] = Table 2, average of 2-3 independent replicates

## Nc1ncnc2c1c(-c1cc(Cl)cc(Cl)c1)cn2[C@@H]1O[C@H](CO)[C@@H](O)[C@H]1O [FH8460, 4-amino-5-(3,5-dichlorophenyl)-N7-(β-D-ribofuranosyl)-pyrrolo[2,3-d]pyrimidine]
T. brucei Squib 427; read-out: EC50 against T. brucei
  EC50: < 10 µM
T. brucei Squib 427; read-out: T.b. brucei EC50, Table 4, average of 2-6 independent determinations
  EC50: 8.17 µM
other
  melting point: 219 °C
[1]; Table 5, average of 2-4 independent replicates
  EC50: 1.72 µM
[2]; read-out: T.b. rhod. EC50
  EC50: 3.66 µM
[3]; MRC-5 EC50, Table 4
  EC50: > 64 µM
[3]; MRC-5 EC50, Table 5
  EC50: > 64 µM

## Nc1ncnc2c1c(C#Cc1ccccc1)cn2[C@@H]1O[C@H](CO)C[C@H]1O [FH8504, 4-amino-5-phenylethynyl-N7-(3′-deoxy-β-D-ribofuranosyl)-pyrrolo[2,3-d]pyrimidine]
T. brucei Squib 427; [4]
  EC50: 0.3 µM
other
  melting point: 120 °C
[1]; [5]
  EC50: 3.7 µM
[2]; read-out: T. brucei rhod. EC50
  EC50: 0.12 µM
[3]; MRC-5 EC50, Table 1
  EC50: 9.6 µM
[3]; MRC-5 EC50, Table 2
  EC50: 9.6 µM

## C#Cc1cn([C@@H]2O[C@H](CO)C[C@H]2O)c2ncnc(N)c12 [FH8505, 4-amino-5-ethynyl-N7-(3′-deoxy-β-D-ribofuranosyl)-pyrrolo[2,3-d]pyrimidine]
T. brucei Squib 427; [4]
  EC50: 0.005 µM
other
  melting point: 192 °C
[1]; [5]
  EC50: 1.66 µM
[2]; read-out: T. brucei rhod. EC50
  EC50: 0.0005 µM

## Nc1ncnc2c1c(C(F)(F)F)cn2[C@@H]1O[C@H](CO)C[C@H]1O [FH9526, 4-amino-5-trifluoromethyl-N7-(3′-deoxy-β-D-ribofuranosyl)-pyrrolo[2,3-d]pyrimidine]
T. brucei Squib 427; [4]
  EC50: 0.94 µM
other
  melting point: 167 °C
[1]; [5]
  EC50: 2.33 µM
[2]; read-out: T. brucei rhod. EC50
  EC50: 1.88 µM
[3]; MRC-5 EC50, Table 1
  EC50: 0.66 µM
[3]; MRC-5 EC50, Table 2
  EC50: 0.66 µM

## OC[C@@H]1C[C@@H](O)[C@H](n2cc(Br)c3cncnc32)O1 [FH9539, 5-bromo-N7-(3′-deoxy-β-D-ribofuranosyl)-pyrrolo[2,3-d]pyrimidine]
T. brucei Squib 427; [4]
  EC50: 0.51 µM
other
  melting point: 186 °C
[1]; [5]
  EC50: 36.8 µM
[2]; read-out: T. brucei rhod. EC50
  EC50: 0.91 µM
[3]; MRC-5 EC50, Table 1
  EC50: 21 µM
[3]; MRC-5 EC50, Table 2
  EC50: 21 µM

## Nc1ncnc2c1c(-c1ccc([N+](=O)[O-])cc1)cn2[C@@H]1O[C@H](CO)C[C@H]1O [FH9582, 4-amino-5-(4-nitrophenyl)-N7-(3′-deoxy-β-D-ribofuranosyl)-pyrrolo[2,3-d]pyrimidine]
T. brucei Squib 427; [4]
  EC50: 2.1 µM
other
  melting point: 254 °C (dec.)
[1]; [5]
  EC50: 1.2 µM
[2]; read-out: T. brucei rhod. EC50
  EC50: 0.32 µM
[3]; MRC-5 EC50, Table 1
  EC50: > 64 µM
[3]; MRC-5 EC50, Table 2
  EC50: > 64 µM

## Nc1ncnc2c1c(Br)cn2[C@@H]1O[C@H](CSCCO)C[C@H]1O [FH9591, 4-amino-5-bromo-N7-(3′-deoxy-5′-thio-ethan-2-ol-β-D-ribofuranosyl)-pyrrolo[2,3-d]pyrimidine]
T. brucei Squib 427; [4]
  EC50: 5.05 µM
other
  melting point: 164 °C
[1]; [5]
  EC50: 33.8 µM
[2]; read-out: T. brucei rhod. EC50
  EC50: 0.71 µM
[3]; MRC-5 EC50, Table 1
  EC50: 26.5 µM
[3]; MRC-5 EC50, Table 2
  EC50: 26.5 µM

## CCCC#Cc1cn([C@@H]2O[C@H](CO)C[C@H]2O)c2ncnc(N)c12 [FH9610, 4-amino-5-pent-1-yn-N7-(3′-deoxy-β-D-ribfuranosyl)-pyrrolo[2,3-d]pyrimidine]
T. brucei Squib 427; [4]
  EC50: 0.32 µM
other
  melting point: 127 to 129 °C
[1]; [5]
  EC50: 4.1 µM
[2]; read-out: T. brucei rhod. EC50
  EC50: 0.04 µM
[3]; MRC-5 EC50, Table 1
  EC50: > 64 µM
[3]; MRC-5 EC50, Table 2
  EC50: > 64 µM

## CCCCC#Cc1cn([C@@H]2O[C@H](CO)C[C@H]2O)c2ncnc(N)c12 [FH9611, 4-amino-5-hex-1-yn-N7-(3′-deoxy-β-D-ribfuranosyl)-pyrrolo[2,3-d]pyrimidine]
T. brucei Squib 427; [4]
  EC50: 0.32 µM
other
  melting point: 161 to 163 °C
[1]; [5]
  EC50: 9.7 µM
[2]; read-out: T. brucei rhod. EC50
  EC50: 0.06 µM
[3]; MRC-5 EC50, Table 1
  EC50: > 64 µM
[3]; MRC-5 EC50, Table 2
  EC50: > 64 µM

## CCc1cn([C@@H]2O[C@H](CO)C[C@H]2O)c2ncnc(N)c12 [FH9613, 4-amino-5-ethyl-N7-(3′-deoxy-β-D-ribofuranosyl)-pyrrolo[2,3-d]pyrimidine]
T. brucei Squib 427; [4]
  EC50: 1.78 µM
other
  melting point: 200 °C
[1]; [5]
  EC50: 19.7 µM
[2]; read-out: T. brucei rhod. EC50
  EC50: 0.65 µM
[3]; MRC-5 EC50, Table 1
  EC50: > 64 µM
[3]; MRC-5 EC50, Table 2
  EC50: > 64 µM

## Nc1ncnc2c1c(-c1cccc(Cl)c1)cn2[C@@H]1O[C@H](CO)C[C@H]1O [FH10641, 4-amino-5-(3-chlorophenyl)-N7-(3′-deoxy-β-D-ribofuranosyl)-pyrrolo[2,3-d]pyrimidine]
T. brucei Squib 427; [4]
  EC50: 7.13 µM
other
  melting point: 130 °C
[1]; [5]
  EC50: 0.97 µM
[2]; read-out: T. brucei rhod. EC50
  EC50: 0.55 µM
[3]; MRC-5 EC50, Table 1
  EC50: 36.1 µM
[3]; MRC-5 EC50, Table 2
  EC50: 36.1 µM

## Nc1ncnc2c1c(-c1cc(Cl)cc(Cl)c1)cn2[C@@H]1O[C@H](CO)C[C@H]1O [FH10642, 4-amino-5-(3,5-dichlorophenyl)-N7-(3′-deoxy-β-D-ribofuranosyl)-pyrrolo[2,3-d]pyrimidine]
T. brucei Squib 427; [4]
  EC50: 7.7 µM
other
  melting point: 211 °C
[1]; [5]
  EC50: 0.55 µM
[2]; read-out: T. brucei rhod. EC50
  EC50: 5.45 µM
[3]; MRC-5 EC50, Table 1
  EC50: 30.2 µM
[3]; MRC-5 EC50, Table 2
  EC50: 30.2 µM

## Cc1ccc(-c2cn([C@@H]3O[C@H](CO)C[C@H]3O)c3ncnc(N)c23)cc1Cl [FH10644, 4-amino-5-(3-chloro-4-methylphenyl)-N7-(3′-deoxy-β-D-ribofuranosyl)-pyrrolo[2,3-d]pyrimidine]
T. brucei Squib 427; [4]
  EC50: 4.74 µM
other
  melting point: 135 °C
[1]; [5]
  EC50: 0.27 µM
[2]; read-out: T. brucei rhod. EC50
  EC50: 5.99 µM
[3]; MRC-5 EC50, Table 1
  EC50: 17.9 µM
[3]; MRC-5 EC50, Table 2
  EC50: 17.9 µM

## CCc1ccc(-c2cn([C@@H]3O[C@H](CO)C[C@H]3O)c3ncnc(N)c23)cc1 [FH10647]
T. brucei Squib 427; [4]
  EC50: 7.58 µM
other
  melting point: 114 °C
[1]; [5]
  EC50: 1.04 µM
[2]; read-out: T. brucei rhod. EC50
  EC50: 1.5 µM
[3]; MRC-5 EC50, Table 1
  EC50: 18.4 µM
[3]; MRC-5 EC50, Table 2
  EC50: 18.4 µM

## Cc1cc(-c2cn([C@@H]3O[C@H](CO)C[C@H]3O)c3ncnc(N)c23)ccc1Cl [FH10648, 4-amino-5-(3-methyl-4-chlorophenyl)-N7-(3′-deoxy-β-D-ribofuranosyl)-pyrrolo[2,3-d]pyrimidine]
T. brucei Squib 427; [4]
  EC50: 6.4 µM
other
  melting point: 125 °C
[1]; [5]
  EC50: 0.21 µM
[2]; read-out: T. brucei rhod. EC50
  EC50: 2.09 µM
[3]; MRC-5 EC50, Table 1
  EC50: 16.7 µM
[3]; MRC-5 EC50, Table 2
  EC50: 16.7 µM

## COc1cc(-c2cn([C@@H]3O[C@H](CO)C[C@H]3O)c3ncnc(N)c23)ccc1Cl [FH10649, 4-amino-5-(3-methoxy-4-chlorophenyl)-N7-(3′-deoxy-β-D-ribofuranosyl)-pyrrolo[2,3-d]pyrimidine]
T. brucei Squib 427; [4]
  EC50: 2.01 µM
other
  melting point: 208 °C
[1]; [5]
  EC50: 0.06 µM
[2]; read-out: T. brucei rhod. EC50
  EC50: 0.54 µM
[3]; MRC-5 EC50, Table 1
  EC50: 17.2 µM
[3]; MRC-5 EC50, Table 2
  EC50: 17.2 µM

## Nc1ncnc2c1c(/C=C/c1ccccc1)cn2[C@@H]1O[C@H](CO)C[C@H]1O [FH10660, 4-amino-5-(E-styryl)-N7-(3′-deoxy-β-D-ribfuranosyl)-pyrrolo[2,3-d]pyrimidine]
T. brucei Squib 427; [4]
  EC50: 1.76 µM
other
  melting point: 170 °C
[1]; [5]
  EC50: 6.28 µM
[2]; read-out: T. brucei rhod. EC50
  EC50: 0.17 µM
[3]; MRC-5 EC50, Table 1
  EC50: 49.4 µM
[3]; MRC-5 EC50, Table 2
  EC50: 49.4 µM

## Nc1ncnc2c1c(-c1ccc(F)cc1)cn2[C@@H]1O[C@H](CO)C[C@H]1O [FH10680, 4-amino-5-(4-fluorophenyl)-N7-(3′-deoxy-β-D-ribofuranosyl)-pyrrolo[2,3-d]pyrimidine]
other
  melting point: 186 to 187 °C
[1]; [5]
  EC50: 0.64 µM
[3]; MRC-5 EC50, Table 2
  EC50: > 64 µM

## Nc1ncnc2c1c(-c1ccc(F)c(Cl)c1)cn2[C@@H]1O[C@H](CO)C[C@H]1O [FH10681, 4-amino-5-(3-chloro-4-fluorophenyl)-N7-(3′-deoxy-β-D-ribofuranosyl)-pyrrolo[2,3-d]pyrimidine]
other
  melting point: 178 °C
[1]; [5]
  EC50: 0.3 µM
[3]; MRC-5 EC50, Table 2
  EC50: 45.5 µM

## Nc1ncnc2c1c(-c1ccc(F)c(F)c1)cn2[C@@H]1O[C@H](CO)C[C@H]1O [FH10682, 4-amino-5-(3,4-difluorophenyl)-N7-(3′-deoxy-β-D-ribofuranosyl)-pyrrolo[2,3-d]pyrimidine]
other
  melting point: 218 °C
[1]; [5]
  EC50: 0.33 µM
[3]; MRC-5 EC50, Table 2
  EC50: > 64 µM

## Nc1ncnc2c1c(-c1ccc(Cl)c(F)c1)cn2[C@@H]1O[C@H](CO)C[C@H]1O [FH10683, 4-amino-5-(3-fluoro-4-chlorophenyl)-N7-(3′-deoxy-β-D-ribofuranosyl)-pyrrolo[2,3-d]pyrimidine]
other
  melting point: 206 °C
[1]; [5]
  EC50: 0.07 µM
[3]; MRC-5 EC50, Table 2
  EC50: 18.6 µM
